Assays:
[1] = target: neuraminidase (NA) of influenza A(H3N2) virus A/YOKOHAMA/87/2019 (Influenza A virus, UniProt A0A193ACB1); type: biochemical
[2] = target: neuraminidase (NA) of influenza A(H3N2) virus A/YOKOHAMA/88/2019 (Influenza A virus, UniProt A0A193ACB1); type: biochemical

CCC(CC)[C@H](NC(C)=O)[C@@H]1[C@H](O)[C@@H](C(=O)O)C[C@H]1N=C(N)N [Peramivir, peramivir]
WHO criteria (fold change of IC50 compared with reference IC50) [1]: 0.16 (NI) (key: NI: normal inhibition) | WHO criteria (fold change of IC50 compared with reference IC50) [2]: 0.13 (NI) (key: NI: normal inhibition)

— paper PMC6440584 (Eurosurveillance, 2019)
